# Test results taken from patent US20250017885A1, “TREATMENT OF INCLUSION BODY MYOSITIS WITH PHENYLBUTYRATE AND MONITORING OF TREATMENT” (University of Kansas, priority 2023, published 2025).
# “Also recorded” adds a separate entry of the source. Read-outs that look alike come from different tables or passages of the source.
# What was measured:
# [1] = system: cultured human muscle fibers; conditions: Nogalska et al. 2014, cited from earlier work; for Aβ42 and Aβ42 oligomers / Lysosomal dysfunction / lysosomal activity / Muscle-fiber vacuolization / γ-secretase activity: cultured human muscle fibers with experimentally-impaired autophagy
# [2] = system: patients with inclusion body myositis; assay: Safety and tolerability of PBA in IBM patients (adverse event reporting, safety laboratory tests); assay type: in vivo, human; conditions: for Serious events not related to the study drug / Serious adverse events related to the study drug / Safety and tolerability / Safety laboratory tests (ALT, creatinine, creatine kinase, blood counts): IBM patients; for Serious adverse events related to the study drug: 3 gm twice daily for 3 months; for Safety and tolerability: 3 gm twice daily orally for 3 months; for Safety laboratory tests (ALT, creatinine, creatine kinase, blood counts): two subjects had mildly elevated liver enzymes at baseline
# Protocol: In a study, PBA at a dose of 3 grams (gm) was administered twice daily in patients with inclusion body myositis. In this study, 10 patients received the daily doses of PBA for 3 months after run-up periods of 3 months. […] The study was conducted by monitoring biomarkers and biological indicators in the subjects. One of the biological indicators is mitochondrial membrane potential, and analyzing the biological indicator uses a mitochondrial tracker (e.g., MitoTracker) to monitor mitochondrial membrane potential. […] As such, the biomarkers, including a mitochondrial tracker, allow for monitoring the progress of treatment of IBM in the subject with PBA. Thus, the present invention can use PBA in human subjects to treat inclusion body myositis with a dose of 3 gm twice daily and monitoring biological indicators or other biomarkers to monitor progress of IBM in the subject. Safety and tolerability of PBA in IBM patients were studied, with a run-in period of 3 months without medication. Biomarkers were studied. […] We have previously assayed TDP-43 and its derivative, phosphorylated TDP-43 (pTDP-43) in peripheral blood platelets in our laboratory (Dr. Agbas). TDP43 positive cytoplasmic aggregates have been described in ALS motor neurons and IBM skeletal muscle tissue with significant up-regulation of TARDBP (the gene expresses TDP-43 protein) and SQTM1 (Sequestosome-1) gene expression.14 Therefore, we planned to measure blood-derived platelet total TDP-43 and pTDP-43 as surrogate biomarker for skeletal muscle TDP-43 profile of IBM patients. […] Secondary outcome measures included multiple strength and functional measures: manual muscle testing, timed up and go test (TUG), IBM functional rating scale (IBMFRS), and grip strength. These clinical outcome measures were commonly used in evaluating progression of IBM and in clinical trials of this disease.^18,19,20,21 In addition, safety laboratory tests and electrocardiogram would be monitored regularly. As mentioned above, the biomarkers would be repeated at the end of the treatment period. The PBA was administered orally at 3 gm doses twice a day. […] Mildly elevated liver enzyme reported in two subjects at baseline and before the treatment period. The most common adverse events which were considered related were GI symptoms (n=9). […] The safety lab tests for monitoring purposes include: Liver enzyme (ALT), renal function test (creatinine), muscle enzyme (creatine kinase) and blood counts (including WBC and platelets). For the primary outcome of safety, the frequency of Adverse Events (AEs) and Serious Adverse Events (SAEs) by grade, would be reported. This would be done for each follow-up visit as well as for all visits combined.
# [3] = system: patients with inclusion body myositis; assay: Secondary outcome measures: strength and functional measures (manual muscle testing, TUG, IBMFRS, grip strength); assay type: in vivo, human
# Excerpt: Primary outcome measures included adverse event reporting. Secondary outcome measures included multiple strength and functional measures: manual muscle testing, timed up and go test (TUG), IBM functional rating scale (IBMFRS), and grip strength. These clinical outcome measures were commonly used in evaluating progression of IBM and in clinical trials of this disease.^18,19,20,21 In addition, safety laboratory tests and electrocardiogram would be monitored regularly. As mentioned above, the biomarkers would be repeated at the end of the treatment period. For the secondary outcomes, the measurements at baseline, month-3, and month-7 would be reported using mean and standard deviation (or median and interquartile range for skewed measurements) along with a corresponding 95% confidence interval. These measurements would be visually compared using box plots to detect the presence of a trend over time by drawing a trend line on the means (or median). Due to the small sample size, this comparison would be done visually, and no formal statistical test would be done routinely but it would be considered to further study a trend.
# [4] = system: mitochondrial membrane potential; assay: MitoTracker biomarker (overall mitochondrial mass / mitochondrial membrane potential) in IBM patients treated with PBA; assay type: in vivo, human
# Excerpt: The mitochondrial tracker used to track treatment of IBM with PBA can include MitoTracker dyes that are cationic fluorophores that accumulate electrophoretically into mitochondria in response to the highly negative mitochondrial membrane potential. […] Thus, mitochondria retain MitoTracker dyes like MitoTracker Orange CMTMRos after loss of their membrane potential. Sec, Kholmukhamedov A, Schwartz J M, Lemasters J J. Isolated mitochondria infusion mitigates ischemia-reperfusion injury of the liver in rats: mitotracker probes and mitochondrial membrane potential. Shock. 2013 June; 39(6):543. doi:10.1097/SHK.0b013e318292300d. PMID: 23680774; PMCID: PMC3759289.
# (§1) Safety and tolerability of PBA in IBM patients were studied, with a run-in period of 3 months without medication. Biomarkers were studied. […] We have previously assayed TDP-43 and its derivative, phosphorylated TDP-43 (pTDP-43) in peripheral blood platelets in our laboratory (Dr. Agbas). TDP43 positive cytoplasmic aggregates have been described in ALS motor neurons and IBM skeletal muscle tissue with significant up-regulation of TARDBP (the gene expresses TDP-43 protein) and SQTM1 (Sequestosome-1) gene expression.14 Therefore, we planned to measure blood-derived platelet total TDP-43 and pTDP-43 as surrogate biomarker for skeletal muscle TDP-43 profile of IBM patients.
# The trend observed in the boxplots of MitoTracker data warranted further exploration with a post hoc analysis. A generalized linear mixed model was used to estimate mean values of MitoTracker at each timepoint. 10 of 11 subjects had measurements at all 3 timepoints. Time was used as a categorical value and correlation among an individual's repeated measurements was accounted for with a random effect for subject. The fixed effect, month, was not statistically significant (p=0.0724). […] The results from the model are exploratory.
# For the secondary outcomes, the measurements at baseline, month-3, and month-7 would be reported using mean and standard deviation (or median and interquartile range for skewed measurements) along with a corresponding 95% confidence interval. These measurements would be visually compared using box plots to detect the presence of a trend over time by drawing a trend line on the means (or median). Due to the small sample size, this comparison would be done visually, and no formal statistical test would be done routinely but it would be considered to further study a trend.
# [5] = system: Annexin, MitoSox, TMRE, TDP-43; assay: Exploratory biomarkers: Annexin, MitoSox, TMRE, TDP-43; assay type: in vivo, human; conditions: FIGS. 7A-7B, 8A-8B, 9A-9B, 10A-10B
# Excerpt: as §1
# [6] = AE considered possibly or probably related, 3 gm orally twice a day, 3 months
# [7] = AE considered unrelated, at baseline before the treatment period
# [8] = gastrointestinal AE considered possibly or probably related, 3 gm orally twice a day, 3 months
# [9] = lysosomal activity-inhibited CHMFs
compound,measurement,setting,value
"O=C([O-])CCCc1ccccc1.[Na+] [NaPBA, Sodium phenylbutyrate]",Aβ42 and Aβ42 oligomers,[1],decreased Aβ42 and its oligomers
same,Lysosomal dysfunction / lysosomal activity,[1],improved lysosomal activity
same,Muscle-fiber vacuolization,[1],virtually prevented muscle-fiber vacuolization
same,γ-secretase activity,[1],decreased γ-secretase activity
same,Lysosomal dysfunction / lysosomal activity,[1]; listed as NaPB,reverses lysosomal dysfunction
phenylbutyrate [PBA],Number of occurrences: Drowsiness,[2]; [6],1
same,Number of occurrences: Gastrointestinal AEs,[2]; [6],9
same,Number of occurrences: Hair Loss,[2]; [6],1
same,Number of occurrences: Musculoskeletal Pain,[2]; [6],2
same,Number of occurrences: Nasal Congestion,[2]; [6],1
same,Number of occurrences: Tremor,[2]; [6],1
same,Number of occurrences: Two Itchy Skin Lesions,[2]; [6],1
same,Number of subjects: Drowsiness,[2]; [6],1
same,Number of subjects: Gastrointestinal AEs,[2]; [6],9
same,Number of subjects: Hair Loss,[2]; [6],1
same,Number of subjects: Musculoskeletal Pain,[2]; [6],2
same,Number of subjects: Nasal Congestion,[2]; [6],1
same,Number of subjects: Tremor,[2]; [6],1
same,Number of subjects: Two Itchy Skin Lesions,[2]; [6],1
same,Number of subjects: Hair Loss,"[2]; AE considered possibly or probably related, 3 gm orally twice a day, 3 months, listed as study drug",One subject had hair loss which was considered possibly related
same,Number of occurrences: Back Pain,[2]; AE considered unrelated,1
same,Number of occurrences: Chills,[2]; AE considered unrelated,1
same,Number of occurrences: Elevated White Blood Count,[2]; AE considered unrelated,1
same,Number of occurrences: Elevated blood pressure,[2]; AE considered unrelated,2
same,Number of occurrences: Falls,[2]; AE considered unrelated,9
same,Number of occurrences: Headache,[2]; AE considered unrelated,1
same,Number of occurrences: Low blood pressure,[2]; AE considered unrelated,1
same,Number of occurrences: Numbness in the Legs,[2]; AE considered unrelated,1
same,Number of occurrences: Right Bundle Branch Block,[2]; AE considered unrelated,1
same,Number of occurrences: Urinary Urgency,[2]; AE considered unrelated,2
same,Number of subjects: Back Pain,[2]; AE considered unrelated,1
same,Number of subjects: Chills,[2]; AE considered unrelated,1
same,Number of subjects: Elevated White Blood Count,[2]; AE considered unrelated,1
same,Number of subjects: Elevated blood pressure,[2]; AE considered unrelated,2
same,Number of subjects: Falls,[2]; AE considered unrelated,6
same,Number of subjects: Headache,[2]; AE considered unrelated,1
same,Number of subjects: Low blood pressure,[2]; AE considered unrelated,1
same,Number of subjects: Numbness in the Legs,[2]; AE considered unrelated,1
same,Number of subjects: Right Bundle Branch Block,[2]; AE considered unrelated,1
same,Number of subjects: Urinary Urgency,[2]; AE considered unrelated,2
same,Number of occurrences: Elevated liver enzymes,[2]; [7],2
same,Number of subjects: Elevated liver enzymes,[2]; [7],2
same,Serious events not related to the study drug,[2],"the only serious event reported (a fall) was related to the disease itself, not the study drug"
same,Serious adverse events related to the study drug,[2],no serious adverse events related to the study drug were reported
same,Serious adverse events related to the study drug,[2]; listed as study drug,No study drug-related serious events were reported
same,Safety and tolerability,[2],safe and well-tolerated
same,Safety and tolerability,[2]; listed as Phenylbutyrate,safe and well tolerated
same,Safety and tolerability,[2]; listed as study drug,well tolerated
same,Serious events not related to the study drug,[2]; listed as study drug,one serious event (a fall that required a hospital visit) that was not related to the study drug
same,"Safety laboratory tests (ALT, creatinine, creatine kinase, blood counts)",[2],indicates safety for the PBA administration
same,"Safety laboratory tests (ALT, creatinine, creatine kinase, blood counts)",[2]; listed as study drug,No other significant laboratory changes were noted
same,Number of occurrences: Constipation,[2]; [8],1
same,Number of occurrences: Heartburn,[2]; [8],4
same,Number of occurrences: Nausea,[2]; [8],2
same,Number of occurrences: Oral Aphthous,[2]; [8],1
same,Number of occurrences: Urgency,[2]; [8],1
same,Number of subjects: Constipation,[2]; [8],1
same,Number of subjects: Heartburn,[2]; [8],4
same,Number of subjects: Nausea,[2]; [8],2
same,Number of subjects: Oral Aphthous,[2]; [8],1
same,Number of subjects: Urgency,[2]; [8],1
same,Number of occurrences: Strep. Throat Infection,"[2]; human, in vivo",1
same,Number of subjects: Strep. Throat Infection,"[2]; human, in vivo",1
same,IBMFRS change during the study,"[3]; 3 months run-in, 3 months treatment",did not seem to change during the study
same,IBMFRS median,"[3]; at the end of the treatment period, median 23 at baseline, 24 at the beginning of the treatment period",23
same,"Strength evaluation of 24 muscles with accumulative total score, change",[3]; in vivo,No meaningful change
same,"TUG (seconds) over the duration of the treatment, change",[3]; in vivo,No meaningful change
same,Change in all clinical and most biological outcome measures,"[3]; short duration, small sample size",no meaningful changes in all clinical and most biological outcome measures
same,MitoTracker median,"[4]; at the end of the treatment period, 19299 at the baseline, 28823 at the beginning of the treatment period",8010
same,"MitoTracker estimated coefficient (95% CI), Month 6","[4]; generalized linear mixed model, Month 3 reference, p 0.0385","−21,344 (−41,402, −1,287)"
same,"MitoTracker estimated coefficient (95% CI), On treatment - Off treatment","[4]; generalized linear mixed model, after treatment vs months 0 and 3 combined","20,780 (3,091, 38,469)"
same,MitoTracker (mitochondrial mass) change with treatment,[4]; treatment period vs run-in period,statistically significant change in the mitochondria; also recorded: changes with treatment with PBA; also recorded: statistically significant change in MitoTracker (mitochondrial mass); also recorded: dropped at the end of the treatment period; also recorded: statistically significantly different from pre-treatment; also recorded: significant drop with treatment
same,"Change in exploratory biomarkers (Annexin, MitoSox, TMRE, TDP-43)",[5],no meaningful change in most exploratory biomarkers
same,Aβ42 and Aβ42 oligomers,[1],decreases Aβ42 and Aβ42 oligomers
same,Muscle-fiber vacuolization,[1],decreasing their vacuolization
same,γ-secretase activity,[1],decreases γ-secretase activity
same,Cathepsins D and B activities,[1]; [9],increased cathepsins D and B activities
same,"NBR1, p62 and LC3-II",[1]; [9],"decrease of NBR1, p62 and LC3-II"
